experiment: method code SF-AS, from DOI: 10.1016/s0021-9673(00)82338-9; conditions: pH 9.0

**Q.** For CN1CCN(Cc2ncc([N+](=O)[O-])n2C)CC1, which logD is on record?
**A.** -0.32

**Q.** For Cc1ncc([N+](=O)[O-])n1CC(=O)N1C=CN(C(=O)Cn2c([N+](=O)[O-])cnc2C)C=C1, which logD is on record?
**A.** -0.7

**Q.** For O=[N+]([O-])c1cncn1CCN1CCOCC1, which logD is on record?
**A.** 0.07

**Q.** Which logD does the source give for Cn1c([N+](=O)[O-])cnc1C=O here?
**A.** -0.69

**Q.** With O=[N+]([O-])c1cnc(C=Cc2ccc3c(c2)OCO3)n1CCO as the compound, how does the logD read?
**A.** 2.03

**Q.** For Cn1c([N+](=O)[O-])cnc1C1CC1, which logD is on record?
**A.** 1

**Q.** With Cn1c([N+](=O)[O-])cnc1COC(N)=O as the compound, how does the logD read?
**A.** -0.38

**Q.** With Cc1ncc([N+](=O)[O-])n1CC(O)Cn1c([N+](=O)[O-])cnc1C as the compound, how does the logD read?
**A.** 0.31

**Q.** With Cn1c([N+](=O)[O-])cnc1CO as the compound, how does the logD read?
**A.** -0.03

— the SangsterLogP compilation
